From patent publication US20260306464A1, “LINAPRAZAN GLURATE FOR TREATING GASTROESOPHAGEAL REFLUX DISEASE (GERD)” (Cinclus Pharma Holding AB (publ), priority 2023, published 2026)

Assay: LEED study: endoscopic healing of erosive esophagitis / LA grade improvement after 4 weeks
Format: in vivo, human
Excerpt: The severity of esophagitis is typically indicated using the Los Angeles (LA) classification of reflux esophagitis, which is based on an endoscopic assessment of the patient. The LA grade scoring system divides reflux esophagitis into four categories (LA grade A to D) based on the extent of esophageal mucosal breaks. […] LA grade C esophagitis is defined as one or more mucosal breaks that are continuous between the tops of two mucosal folds, but which involves less than 75% of the esophageal circumference. The most severe form, LA grade D esophagitis, is defined as one or more mucosal breaks involving at least 75% of the esophageal circumference (Lundell et al., Gut 1999, vol. 45, p. 172-180).
As used herein, the terms “improvement of the LA grade” and “LA grade improvement” refer to one or more steps from one LA grade to a lower LA grade (such as from grade D to grade C, B or A) or to being healed. In some embodiments, the improvement of the LA grade is 1 step. In some embodiments, the improvement of the LA grade is 2 steps. In some embodiments, the improvement of the LA grade is 3 steps. In some embodiments, the improvement of the LA grade is 4 steps.
The study included patients with erosive esophagitis (eGERD). Patients were divided into two cohorts, one with patients having moderate to severe eGERD (LA grade C/D) and one with patients having milder eGERD (LA grade A/B) with a history of only partial response to PPI-treatment. The primary endpoint of the study was to support dose selection of linaprazan glurate for the phase III program in eGERD, through central assessment of healing of erosive esophagitis after four weeks of treatment. The sample size, i.e., the number of patients needed, for measuring dose related efficacy was based on the patient cohort with moderate to severe eGERD. After initial endoscopy and other screening procedures, 248 patients were randomized equally into one of five treatment groups, receiving either four weeks treatment with linaprazan glurate in four dose levels, or four weeks lansoprazole in the approved standard eGERD healing dose. Thereafter, an endoscopic evaluation of healing was performed, where healing was defined as no presence of esophageal erosions, i.e., no erosive damage to the esophageal mucosa. After the endoscopic evaluation, all patient groups received lansoprazole for four weeks in a maintenance phase. A retrospective central review of the endoscopy findings was performed, and 162 patients were available for evaluation of the primary endpoint. All enrolled 248 patients were included in the safety analysis.
The study was a randomized, double-blind, active comparator-controlled study with a parallel group design including four arms with linaprazan glurate and one arm with lansoprazole. Pharmacokinetic (PK) blood sampling pre-dose, close before the first and the second dose administration was performed at Day 7, Day 14 and Day 28 visits days in all patients. 248 patients with erosive esophagitis due to GERD LA grade C or D and patients with erosive esophagitis due to GERD LA grade A or B with at least partial symptom response but still endoscopically unhealed after 8 weeks history of standard treatment healing course with PPI, were randomized.
Randomization to one of the treatments with linaprazan glurate 25 mg, 50 mg, 75 mg, 100 mg twice daily (BID), or lansoprazole 30 mg once daily (QD) was based on a 1:1:1:1:1 scheme. One site could not enroll more than about 20% of the overall number of patients (48 patients per site).
The duration of each patient's participation in the study, including screening, blind treatment period and open-label treatment period, was approximately 60 days. The patients were randomized for 4 weeks (28 days, −2/+5 days) of double-blind treatment and were provided with IMP for 35 days (including one additional blister pack dispensed at Visit 2/Day 0) to allow for treatment up to the visit window. […]

[1] = LA grade C/D, LG 100 mg BID, 4 weeks

With `Cc1cccc(C)c1CNc1cc(C(=O)NCCOC(=O)CCCC(=O)O)cn2c(C)c(C)nc12` [linaprazan glurate, 5-{2-[({8-[(2,6-dimethylbenzyl)amino]-2,3-dimethylimidazo[1,2-a]pyridine-6-yl}carbonyl)-amino]ethoxy}-5-oxopentanoic acid] the “healing rate vs lansoprazole” value (4-week treatment vs 30 mg/day lansoprazole) was “significantly higher healing rates”, the “dose response in the healing rates” value (4 weeks, LG 25-100 mg BID) was “clear dose response” and the “healing rate of eGERD” value (25, 50, 75 or 100 mg twice daily for 4 weeks) was “high healing rates”. For the same compound, the “highest four-week healing rate in a linaprazan glurate dosing group” value (LA grade A/B, 4 weeks, BID) was 91%, the “mean healing rate, all patients treated with linaprazan glurate” value (LA grade A/B/C/D, 4 weeks, all LG doses, FIG. 8) was 80% and the “highest mean LA grade improvement in a linaprazan glurate dosing group” value (LA grade C/D, 4 weeks, BID, FIG. 5) was 3.1. For the same compound, the “LA grade improvement of all LG-treated patients vs lansoprazole” value (LA grade C/D, 4 weeks, all LG doses) was “higher than lansoprazole”, the “highest four-week healing rate in a linaprazan glurate dosing group” value (LA grade C/D, 4 weeks, FIG. 6 (all LG dose group), FIG. 7 (LG 75 mg dose group)) was 89% and the “patients whose 4-week LA grade was A” value [1] was 6 out of 7. For the same compound, the “response in the 100 mg dose group” value [1] was “lower than expected”, the “healing rate of all LG-treated patients vs lansoprazole” value (LA grade C/D, post-hoc analysis, Fisher's exact test) was “significantly higher than lansoprazole” and the “mean harmonic p-value, healing rate LG vs lansoprazole” value (LA grade C/D, post-hoc, Fisher's exact test) was 0.0404.
